≈ marks a conversion by molar mass, not a printed value. Like-named read-outs stand apart in the source and are kept apart here.
Columns and labels:
E. coli ATCC25922 = test: Broth microdilution MIC/MBC (ISO 20776-1); format: cell-based, Escherichia coli
Procedure: (§1) Bacterial strains and cell lines were obtained from the American Type Culture Collection (ATCC).[59] […] Antimicrobial activity was tested in Müeller Hinton (MH) II broth (Becton Dickinson). For anticancer activity assay, the following reagents from Merk were used: 3-(4,5-dimethylthiazol-2-yl)-2,5-diphenyltetrazolium bromide (MTT), sodium dodecyl sulfate (SDS) and HCl. The solubilized formazan product was spectrophotometrically quantified in a Power Wave XS (Bio Tek, Winooski, VT, USA) microplate reader. The HL-60 and PC-3 cells were grown in RPMI-1640 medium with stable glutamine (Biowest) supplemented with 10% (v/v) of heat-inactivated fetal bovine serum (FBS, Biowest) and 1% (v/v) of antibiotic–antimycotic solution (Biowest). The SKOV-3 cells were grown in McCoy's 5A medium with L-glutamine (Biowest) supplemented with 10% (v/v) heat-inactivated FBS, and 1% (v/v) antibiotic–antimycotic solution. The MCF-7 cells were grown in Eagle's MEM (Minimal Essential Medium) medium with stable glutamine (Biowest), supplemented with 10% (v/v) heat-inactivated FBS 1% (v/v) MEM non-essential amino acids (Biowest), 1% (v/v) antibiotic–antimycotic solution, and 1 mM sodium pyruvate (Merck). The MCF-10A cells were grown in Ham's F-12K (Kaighn's) Medium with stable glutamine (Gibco) supplemented with 5% (v/v) heat-inactivated FBS, 1% (v/v) MEM non-essential amino acids, 1% (v/v) antibiotic–antimycotic solution, 5 μg mL^−1 insulin, 0.04 μg mL^−1 hydrocortisone (Merck), and 15 ng mL^−1 human Epidermal Growth Factor (hEGF, PeproTech).
(§2) The in vitro antibacterial activity was determined according to ISO 20776-1.[88] Among the tested microorganisms were Gram-negative rods, E. coli ATCC25922 and P. aeruginosa ATCC27853, and Gram-positive cocci, S. aureus ATCC29213 and E. faecalis ATCC29212. The selected bacterial species represented the most common etiologic agents of human infections and are used for quality control of antimicrobial susceptibility testing.[89] The test procedure included the determination of MICs and MBCs of complexes and their free ligands. MIC and MBC determinations of ciprofloxacin, as the reference antibiotic, were also performed. All compounds were dissolved in DMSO to reach the maximum 512 mg L^−1 concentration. […] The assay consisted of preparing 2-fold dilutions of the substances in a liquid growth medium MH II and inoculating them with a standardized suspension of microorganisms at a McFarland density of 0.5 (≈10^8 CFU mL^−1). The culture plates were incubated at 35 °C for 24 h. The lowest concentration of the compound inhibiting visible bacterial growth was specified as MIC, and the concentration that reduced bacterial growth by >99.99% after counting live bacteria on the plates compared to the positive control was defined as MBC.

P. aeruginosa ATCC27853 = test: Broth microdilution MIC/MBC (ISO 20776-1); format: cell-based, Pseudomonas aeruginosa
Procedure: as §1, §2

S. aureus ATCC29213 = test: Broth microdilution MIC/MBC (ISO 20776-1); format: cell-based, Staphylococcus aureus
Procedure: as §1, §2

E. faecalis ATCC29212 = test: Broth microdilution MIC/MBC (ISO 20776-1); format: cell-based, Enterococcus faecalis
Procedure: as §1, §2

HL-60 cells = test: MTT cytotoxicity assay; format: cell-based, human; conditions: read-out: IC50 ± SD
Procedure: (§3) The cytotoxicities for studied compounds were evaluated against leukemia cells (HL-60), as well as ovarian (SKOV-3), prostate (PC-3), and breast (MCF-7) cancer cell lines. The potential selectivity of these compounds towards cancer cells was assessed by determination of their cytotoxicities towards breast non-cancerous cells (MCF-10A). For comparison, cisplatin was added to the cytotoxicity assays.
as §1
(§4) The cells were cultured in 96-well plates and incubated with the tested compound for 24 h and 48 h. All experiments were performed in exponentially growing cultures. The 0.03 M solutions of the compounds in DMSO were appropriately diluted using culture media. The maximal final concentration of DMSO in each well was 0.1%. The cytotoxicity of the compounds was measured by determining cell viability with a colorimetric test based on 3-(4,5-dimethylthiazol-2-yl)-2,5-diphenyltetrazolium bromide (MTT). MTT stock solution was added to each well to a final concentration of 0.5 mg mL^−1 and incubated for 4 h at 37 °C; following formazan crystals were dissolved by the addition of sodium dodecyl sulfate (SDS) solution (10% SDS in 0.001 M HCl). MTT and SDS were added directly to the cell culture. The compound's IC50 values (concentration required to reduce the viability of cells by 50% compared with the control cells) were calculated from the data obtained with the MTT assay.

MCF-7 cells = test: MTT cytotoxicity assay; format: cell-based, human; conditions: for IC50: read-out: IC50 ± SD
Procedure: as §3, §1, §4

PC-3 cells = test: MTT cytotoxicity assay; format: cell-based, human; conditions: read-out: IC50 ± SD
Procedure: as §3, §1, §4

SKOV-3 cells = test: MTT cytotoxicity assay; format: cell-based, human; conditions: for IC50: read-out: IC50 ± SD
Procedure: as §3, §1, §4

MCF-10A cells = test: MTT cytotoxicity assay; conditions: for IC50: read-out: IC50 ± SD
Procedure: as §3, §1, §4

[1] = MCF-10A (non-cancerous), 24 h, MTT, * precipitation of the complex
[2] = MCF-10A (non-cancerous), 48 h, MTT, * precipitation of the complex

## [C-]#[O+].[C-]#[O+].[C-]#[O+].[Re][O]c1cccc2cccnc12.c1ccc(-c2ccn[nH]2)cc1 [complex 4, [Re(CO)3(Q)HPhpz]·0.5CH3CN]
E. coli ATCC25922; E. coli ATCC25922, >99.99% reduction of growth
  MBC: >512/>512 mg L^−1
E. coli ATCC25922; E. coli ATCC25922, MH II broth, 35 °C, 24 h
  MIC: >512/>512 mg L^−1
P. aeruginosa ATCC27853; P. aeruginosa ATCC27853, >99.99% reduction of growth
  MBC: >512/>512 mg L^−1
P. aeruginosa ATCC27853; P. aeruginosa ATCC27853, MH II broth, 35 °C, 24 h
  MIC: >512/>512 mg L^−1
S. aureus ATCC29213; S. aureus ATCC29213, >99.99% reduction of growth
  MBC: > 512 µg/mL
S. aureus ATCC29213; S. aureus ATCC29213, MH II broth, 35 °C, 24 h
  MIC: 256 µg/mL
E. faecalis ATCC29212; E. faecalis ATCC29212, >99.99% reduction of growth
  MBC: > 512 µg/mL
E. faecalis ATCC29212; E. faecalis ATCC29212, MH II broth, 35 °C, 24 h
  MIC: 32 µg/mL
HL-60 cells; HL-60, 24 h, MTT
  IC50: 9 ± 1 µM
HL-60 cells; HL-60, 48 h, MTT
  IC50: 9 ± 1 µM
MCF-7 cells; MCF-7, 24 h, MTT
  IC50: 73 ± 3 µM
MCF-7 cells; MCF-7, 48 h, MTT
  IC50: 50 ± 3 µM
PC-3 cells; PC-3, 24 h, MTT
  IC50: 42 ± 6 µM
PC-3 cells; PC-3, 48 h, MTT
  IC50: 27 ± 3 µM
SKOV-3 cells; SKOV-3, 24 h, MTT
  IC50: > 100 µM
SKOV-3 cells; SKOV-3, 48 h, MTT
  IC50: 81 ± 9 µM
MCF-10A cells; [1]
  IC50: 50 ± 5 µM
MCF-10A cells; [2]
  IC50: 36 ± 4 µM

## Oc1cccc2cccnc12 [HQ, 8-hydroxyquinoline]
E. coli ATCC25922; Escherichia coli, ATCC25922
  MBC: > 512 µg/mL
E. coli ATCC25922; Escherichia coli, ATCC25922, 24 h
  MIC: 32 µg/mL (≈ 220 µM)
P. aeruginosa ATCC27853; Pseudomonas aeruginosa, ATCC27853
  MBC: > 512 µg/mL
P. aeruginosa ATCC27853; Pseudomonas aeruginosa, ATCC27853, 24 h
  MIC: 256 µg/mL (≈ 1760 µM)
S. aureus ATCC29213; Staphylococcus aureus, ATCC29213
  MBC: 64 µg/mL (≈ 441 µM)
S. aureus ATCC29213; Staphylococcus aureus, ATCC29213, 24 h
  MIC: 16 µg/mL (≈ 110 µM)
E. faecalis ATCC29212; Enterococcus faecalis, ATCC29212
  MBC: 32 µg/mL (≈ 220 µM)
E. faecalis ATCC29212; Enterococcus faecalis, ATCC29212, 24 h
  MIC: 2 µg/mL (≈ 13.8 µM)
HL-60 cells; Homo sapiens, HL-60, 24 h
  IC50: 2.2 ± 0.2 µM
HL-60 cells; Homo sapiens, HL-60, 48 h
  IC50: 2 ± 0.2 µM
MCF-7 cells; Homo sapiens, MCF7, 24 h
  IC50: 24 ± 6 µM
MCF-7 cells; Homo sapiens, MCF7, 48 h
  IC50: 7 ± 2 µM
MCF-7 cells; MCF-10A versus MCF-7
  selectivity: IC50 for normal cells times higher than for breast cancer cells: at least 3 times
PC-3 cells; Homo sapiens, PC-3, 24 h
  IC50: 18 ± 2 µM
PC-3 cells; Homo sapiens, PC-3, 48 h
  IC50: 29 ± 3 µM
SKOV-3 cells; Homo sapiens, SK-OV-3, 24 h
  IC50: > 100 µM
SKOV-3 cells; Homo sapiens, SK-OV-3, 48 h
  IC50: 29 ± 5 µM
MCF-10A cells; Homo sapiens, MCF-10A, 24 h
  IC50: > 100 µM
MCF-10A cells; Homo sapiens, MCF-10A, 48 h
  IC50: > 100 µM

## N.N.[Cl][Pt][Cl] [cisplatin, reference compound]
HL-60 cells; HL-60, 24 h, MTT
  IC50: 46 ± 1 µM
PC-3 cells; PC-3, 24 h, MTT
  IC50: 58 ± 6 µM
PC-3 cells; PC-3, 48 h, MTT
  IC50: 20 ± 2 µM
SKOV-3 cells; SKOV-3, 24 h, MTT
  IC50: > 100 µM
SKOV-3 cells; SKOV-3, 48 h, MTT
  IC50: > 100 µM
SKOV-3 cells; SKOV-3, incubation time not given
  activity: no action
MCF-10A cells; MCF-10A, incubation time not given
  IC50 / activity on normal cells: no action
MCF-10A cells; [1]
  IC50: > 100 µM
MCF-10A cells; [2]
  IC50: > 100 µM

## O=C(O)c1cn(C2CC2)c2cc(N3CCNCC3)c(F)cc2c1=O [CIP, ciprofloxacin, reference compound]
E. coli ATCC25922; Escherichia coli, E. coli ATCC25922, >99.99% reduction of growth, read-out: MBC
  MBC: 4 µg/mL (≈ 12.1 µM)
E. coli ATCC25922; Escherichia coli, E. coli ATCC25922, MH II broth, 35 °C, 24 h, read-out: MIC
  MIC: < 0.5 µg/mL
P. aeruginosa ATCC27853; Pseudomonas aeruginosa, P. aeruginosa ATCC27853, >99.99% reduction of growth, read-out: MBC
  MBC: 8 µg/mL (≈ 24.1 µM)
P. aeruginosa ATCC27853; Pseudomonas aeruginosa, P. aeruginosa ATCC27853, MH II broth, 35 °C, 24 h, read-out: MIC
  MIC: 1 µg/mL (≈ 3.02 µM)
S. aureus ATCC29213; Staphylococcus aureus, S. aureus ATCC29213, >99.99% reduction of growth, read-out: MBC
  MBC: 1 µg/mL (≈ 3.02 µM)
S. aureus ATCC29213; Staphylococcus aureus, S. aureus ATCC29213, MH II broth, 35 °C, 24 h, read-out: MIC
  MIC: < 0.5 µg/mL
E. faecalis ATCC29212; Enterococcus faecalis, E. faecalis ATCC29212, >99.99% reduction of growth, read-out: MBC
  MBC: 8 µg/mL (≈ 24.1 µM)
E. faecalis ATCC29212; Enterococcus faecalis, E. faecalis ATCC29212, MH II broth, 35 °C, 24 h, read-out: MIC
  MIC: 2 µg/mL (≈ 6.04 µM)

From paper PMC11152041, “Tricarbonyl rhenium(I) complexes with 8-hydroxyquinolines: structural, chemical, antibacterial, and anticancer characteristics” (RSC Advances, 2024)
